Molecules are shown by their SMILES. pIC50: −log10 of the molar value. ≈ marks a conversion by molar mass, not a printed value. Bounds are passed on as bounds.

Data set [1] in a line: Inhibition of porcine cytosolic phospholipase A2 alpha using SAPC and 2-dioleoyl-sn-glycerol as substrate incubated for 60 mins by HPLC-UV analysis. Also on record: species or system Sus scrofa.
Data set [2] can be described thus: Metabolic stability in rat liver S9 fraction assessed as parent compound remaining at 20 uM incubated for 30 mins in presence of NADPH by HPLC-MS analysis. It counts as ADME, subcellular. The note with it: read-out: Stability.
Data set [3] is described as follows: Metabolic stability in rat liver S9 fraction assessed as parent compound remaining at 5 uM incubated for 30 mins in presence of UDPGA by HPLC-MS analysis. It counts as ADME, subcellular. The note with it: read-out: Stability.
For a further data set, the species on record is Sus scrofa. The data set can be described thus: Inhibition of porcine cytosolic phospholipase A2 alpha using SAPC and 2-dioleoyl-sn-glycerol as substrate at 10 uM incubated for 60 mins by HPLC-UV analysis.
Data set [4] can be described thus: Partition coefficient,logP of compound by reversed-phase HPLC analysis. It counts as physicochemical. As to conditions: octanol/water.
Data set [5] in a line: Kinetic solubility of compound in PBS at pH 7.4 incubated for 24 hrs by HPLC-UV analysis. It counts as physicochemical. As to conditions: read-out: Kinetic_solubility.
A short description of data set [6]: Thermodynamic solubility of the compound in PBS at pH 7.4 incubated for 20 hrs by HPLC-UV analysis. It counts as physicochemical. As to conditions: read-out: Therm_solubility.
Data set [7] can be described thus: Drug concentration in C57Bl/6 mouse plasma at 30 mg/kg,po observed after 2 hrs by HPLC-MS analysis. The data set is classed as ADME, organism-based.
A short description of data set [8]: Permeability across apical to basolateral side in human Caco-2 cells at 10 uM incubated for 2 hrs by HPLC-MS analysis. The data set is classed as ADME, cell-based. The note with it: caco-2, 2 h. For orientation: Caco-2 monolayers are a common model of the intestinal barrier.
Data set [9] can be described thus: Apparent permeability across apical to basolateral side in human Caco-2 cells at 10 uM incubated for 2 hrs by HPLC-MS analysis. The data set is classed as ADME, cell-based.

Take `CCCCCCCCc1ccc(OCC(=O)Cn2c(C)c(CCC(=O)O)c(C(=O)C(C)C)c2C)cc1`: in [1], the negative-log IC50 (pIC50) (in general, −log10 of the IC50, conventionally taken in molar units) is under 5.00. In addition, in data set [2], the remaining at 0.5 h, 20 µM was determined as 39%. Also, the remaining at 0.5 h, 5 µM in data set [3] is over 90%. Further, the inhibition (usually the share of the control response that was lost under treatment) in the data set filed under Sus scrofa turned out to be 45%.

Take `CCCCCCCCc1ccc(OCC(=O)Cn2cc(CCC(=O)O)c(-c3nc(C)no3)c2)cc1`: in data set [1], the negative logarithm of the IC50 (pIC50) is 9.00. Besides, the remaining at 0.5 h, 20 µM in data set [2] is 34%. Also, the remaining at 0.5 h, 5 µM in [3] was over 90%. The log partition coefficient (logP) (as a rule, a log measure of how a compound divides between an organic and an aqueous phase) in data set [4] was 5.9.

Take `CCCCCCCCc1ccc(OCC(=O)Cn2cc(CCCC(=O)O)c(C(=O)C(C)C)c2)cc1`: the negative-log IC50 (pIC50) in data set [1] is 6.35. The remaining at 0.5 h, 20 µM in [2] was 25%. Further, in data set [3], the remaining at 0.5 h, 5 µM is over 90%.

For `CC(C)C(=O)c1cn(CC(=O)COc2ccc(C34CC5CC(CC(C5)C3)C4)cc2)cc1CCC(=O)O`, the negative-log IC50 (pIC50) in data set [1] is 7.29. Also, the remaining at 0.5 h, 20 µM in data set [2] came out at 20%. In addition, the remaining at 0.5 h, 5 µM in [3] was over 90%. This compound also registered a log partition coefficient (logP) in data set [4] of 5.6.

In [1], `CC(C)C(=O)c1cn(CC(=O)COc2ccc(-c3ccc(C(F)(F)F)cc3)cc2)cc1CCC(=O)O` gave a pIC50 of 6.77. Besides, in data set [2], the remaining at 0.5 h, 20 µM came out at 34%. For the same compound, in data set [3], the remaining at 0.5 h, 5 µM is over 90%. For the same compound, the logP in data set [4] is 4.

For the compound `COc1cccc2c1C(=O)c1c(O)c3c(c(O)c1C2=O)C[C@@](O)(C(C)=O)C[C@@H]3O[C@H]1C[C@H](N)[C@H](O)[C@H](C)O1` [DAUNORUBICIN], the remaining at 0.5 h, 20 µM in data set [2] came to 28%. Further, in data set [3], the remaining at 0.5 h, 5 µM stood at 32%.

Compound `CCCCCCCCc1ccc(OCC(=O)Cn2cc(C(=O)C(C)C)cc2CCC(=O)O)cc1` gave a negative-log IC50 (pIC50) in data set [1] of 6.34. Also, the remaining at 0.5 h, 20 µM in [2] worked out at 60%. Further, the remaining at 0.5 h, 5 µM in [3] is over 90%. For the same compound, the solubility kinetic at 24 h in [5] is at least 250 µg/mL. In addition, the solubility thermodynamic at 20 h in data set [6] turned out to be 394 µg/mL (≈ 839 µM). For the same compound, in [7], the concentration at 2 h was determined as 220 ng/mL. The permeability entry in [8] is on record as “Impermeable”.

Take `Cc1noc(-c2cn(CC(=O)C(C)Oc3ccc(Oc4ccc(F)cc4)cc3)cc2CCC(=O)O)n1` (stereo not drawn): the negative-log IC50 (pIC50) in data set [1] is 7.49. Besides, the remaining at 0.5 h, 20 µM in data set [2] came out at 15%. Besides, in data set [3], the remaining at 0.5 h, 5 µM was over 90%. The logP in [4] came to 3.3.

For the compound `CCCCCCCCc1ccc(OCC(=O)Cn2cc(-c3nc(C)no3)c3cc(C(=O)O)ccc32)cc1`, in [1], the negative-log IC50 (pIC50) was 7.82. Also, the remaining at 0.5 h, 20 µM in [2] amounted to 30%. In addition, the remaining at 0.5 h, 5 µM in data set [3] was under 5%.

Compound `CCCCCCCCc1ccc(OCC(=O)Cn2cc(C(=O)C(C)C)c3cc(C(=O)O)ccc32)cc1` gave a pIC50 in data set [1] of 8.00.

In the case of `COc1ccc2c(c1)c(CC(=O)O)c(C)n2C(=O)c1ccc(Cl)cc1` [INDOMETHACIN], the Papp A→B (in general, how fast a substance crosses the layer from the apical side) at 2 h, 10 µM in data set [9] was 18 ×10⁻⁶ cm/s.

`CC(C)C(=O)c1cn(CC(=O)COc2ccc(Oc3ccccc3)cc2)c2ccc(C(=O)O)cc12`: in data set [1], the pIC50 is 7.92.

Regarding `CCCCCCCCc1ccc(OCC(=O)Cn2cc(C(=O)C(C)C)cc2CCCC(=O)O)cc1`, in data set [1], the pIC50 was 6.19. Besides, the remaining at 0.5 h, 20 µM in data set [2] worked out at 59%. In addition, the remaining at 0.5 h, 5 µM in [3] is over 90%.

In data set [1], `CCCCCCCCc1ccc(OCC(=O)C(C)n2cc(CCC(=O)O)c(-c3nc(C)no3)c2)cc1` (stereo not drawn) showed a pIC50 of 9.00. In addition, the remaining at 0.5 h, 20 µM in data set [2] turned out to be 43%. In addition, the remaining at 0.5 h, 5 µM in data set [3] is over 90%. The compound further yielded a logP in data set [4] of 6.1.

On to `CCCCCCCCc1ccc(OC(C)C(=O)Cn2cc(CCC(=O)O)c(-c3nc(C)no3)c2)cc1` (stereo not drawn), for which, in data set [1], the pIC50 was 7.89. The remaining at 0.5 h, 20 µM in data set [2] was 62%. In addition, in data set [3], the remaining at 0.5 h, 5 µM is over 90%. Also, in data set [4], the lipophilicity (logP) was determined as 6.5. Also, in [5], the solubility kinetic at 24 h amounted to 10 µg/mL (≈ 20.2 µM).

For `Cc1noc(-c2cn(CC(=O)C(C)Oc3ccc(Oc4ccc(Cl)cc4)cc3)cc2CCC(=O)O)n1` (stereo not drawn), the negative logarithm of the IC50 (pIC50) in [1] is 7.42. For the same compound, the remaining at 0.5 h, 20 µM in data set [2] was 21%. Also, in data set [3], the remaining at 0.5 h, 5 µM is over 90%. Further, the log partition coefficient (logP) in data set [4] is 3.9.

As to `CC(C)C(=O)c1cn(CC(=O)COc2ccc(Oc3ccc(C(F)(F)F)cc3)cc2)cc1CCC(=O)O`, the negative logarithm of the IC50 (pIC50) in data set [1] is 7.09. Moreover, in [2], the remaining at 0.5 h, 20 µM was under 5%. Further, the remaining at 0.5 h, 5 µM in data set [3] is over 90%. For the same compound, the lipophilicity (logP) in data set [4] came to 4.

As for `Cc1noc(-c2cn(CC(=O)C(C)Oc3ccc(Oc4ccc(C(F)(F)F)cc4)cc3)cc2CCC(=O)O)n1` (stereo not drawn), in data set [1], the negative-log IC50 (pIC50) was 7.80. Also, in data set [2], the remaining at 0.5 h, 20 µM was 30%. Further, the remaining at 0.5 h, 5 µM in [3] was over 90%. This compound came in with a logP in [4] of 4.1. Further, the permeability result in data set [8] was “Permeable”.

The compound `CCCCCCCCc1ccc(OCC(O)Cn2cc(CCC(=O)O)c(C(=O)C(C)C)c2)cc1` (stereo not drawn) registered a concentration at 2 h in data set [7] of 50 ng/mL. Also, the permeability entry in data set [8] is “Permeable”.

Consider `CC(C)C(=O)c1cn(CC(=O)COc2ccc3c(ccn3-c3ccc(F)cc3)c2)cc1CCC(=O)O`, for which the pIC50 in data set [1] is 6.51. Further, in data set [2], the remaining at 0.5 h, 20 µM is under 5%. Further, the remaining at 0.5 h, 5 µM in data set [3] is over 90%. Also, the logP in data set [4] worked out at 3.3.

As to `CCCCCCCCc1ccc(OCC(=O)Cn2cc(CCC(=O)O)c(C(=O)C(C)C)c2)cc1`, the negative logarithm of the IC50 (pIC50) in data set [1] is 7.28. In addition, the remaining at 0.5 h, 20 µM in [2] amounted to 54%. Also, the remaining at 0.5 h, 5 µM in data set [3] is over 90%. In data set [4], this compound had a logP of 6.3. For the same compound, the solubility kinetic at 24 h in data set [5] stood at 174 µg/mL (≈ 371 µM).

`CCCCCCCCCCOc1ccc(OCC(=O)COc2ccc(C(=O)O)cc2)cc1` gave a pIC50 in data set [1] of 8.19.

`CCCCCCCCc1ccc(OCC(=O)Cn2cc(CC(=O)O)c(C(=O)C(C)C)c2)cc1` gave a pIC50 in data set [1] of 7.40. For the same compound, in data set [2], the remaining at 0.5 h, 20 µM was found to be 25%. Also, in data set [3], the remaining at 0.5 h, 5 µM is over 90%.

The values are drawn from ChEMBL document CHEMBL5236626, “Synthesis and pharmacokinetic properties of novel cPLA2α inhibitors with 1-(carboxyalkylpyrrolyl)-3-aryloxypropan-2-one structure” (Bioorg Med Chem, 2023).
